Marks after values point to notes of the source that are not given here.
Legend:
[1] = system: dairy goat sperms; experiment: Sperm viability and motility by CASA semen assisted analysis during preservation at 4 degrees C.; assay type: cell-based
Method: 1) prepare base diluent: add 30.3 g/L Tris, 16.0 g/L citric acid, 6.4 g/L glucose, 6.4 g/L D-fructose, 2.5 g/L trehalose, 1.0 g/L BSA and 3.75 g/L soybean lecithin into distilled water to 1 L, dissolve in a water bath for 1 hour at 37 degrees C., filter and sterilize, and then add 1 million IU/L penicillin and 1 million IU/L streptomycin; select semen with motility more than 80% for preservation, and keep diluent warm in a water bath at 37 degrees C. before semen dilution; gradually dilute at the dilution ratio (add the diluent into each group of semen along the tube wall during the operation), dilute the semen with the diluent at 1:1 and stand for 3 minutes, then dilute the semen with the diluent at 1:3 and stand for 3 minutes, and let the ratio of semen to diluent reach 1:7 (keep the temperature at 33-35 degrees C. during dilution); bind a centrifuge tube containing the diluted semen with a rubber band and put the centrifuge tube into a beaker containing isothermal water, keep the centrifuge tube vertical and the water level in the beaker higher than the diluent level of in the centrifuge tube, place for 1 hour at room temperature, put the beaker into a refrigerator at 4 degrees C., keep the cooling rate at 8-10 degrees C./h, and shake the centrifuge tube every 8 hours to prevent the sperms from accumulating, sinking to bottom and resulting in death;
2) take 5 μL of semen on the days 0, 1, 3 and 5 of semen preservation, put the semen on slides, preheat an objective table and perform microscopic examination at 37 degrees C., and detect semen motility and viability by Meilan CASA semen assisted analysis system; select at least five random fields of view for determination, with a minimum semen count of 200 in each field; the ratio of number of live sperms to total number of sperms is sperm viability, and the ratio of number of linearly moving sperms to total number of sperms is sperm motility. Average the results, and record the test data (see Table 1);
(§1) 1) add different concentrations of gamma-aminobutyric acids into a tupping ram semen base diluent, and take a group without gamma-aminobutyric acid added as the control group; take a group with gamma-aminobutyric acid added as the experimental group, the addition concentrations are respectively 0.5 g/L, 1.0 g/L, 1.5 g/L and 2.0 g/L, and six duplications exist in each group; screen out the optimal concentration of gamma-aminobutyric acid according to semen quality indexes, set the optimal concentration to T group, and detect the semen membrane and acrosome integrity, various antioxidant enzyme activities and ROS content change after adding the optimal concentration of gamma-aminobutyric acid;

[2] = Sperm plasma membrane integrity (PMI) by SYBR-14/PI fluorescence staining; assay type: cell-based, dairy goat
Description: as §1

[3] = system: tupping ram sperms; experiment: Sperm acrosome integrity (CGI) by FITC-PNA fluorescence staining; assay type: cell-based, dairy goat
Description: as §1

[4] = system: sperms; experiment: Antioxidant indexes of sperms (T-AOC, SOD, GSH-Px, MDA, CAT, ROS) by Solarbio kits; assay type: cell-based, dairy goat
Description: as §1

[5] = 0.5 g/L in base diluent, Day 5 at 4 degrees C.
[6] = 1.0 g/L in base diluent, Day 5 at 4 degrees C.
[7] = 1.5 g/L in base diluent, Day 5 at 4 degrees C.
[8] = 2.0 g/L in base diluent, Day 5 at 4 degrees C.
[9] = experimental group, day 5 of preservation at 4 degrees C.
[10] = optimal concentration (T group), day 3 of preservation at 4 degrees C., P<0.05
[11] = preservation day not given, P<0.05

NCCCC(=O)O [gamma-aminobutyric acid, Gamma-aminobutyric acid]
Semen motility % ([1]; 0.5 g/L in base diluent, Day 0): 81.36 ± 2.05%
Sperm viability % ([1]; 0.5 g/L in base diluent, Day 0): 84.12 ± 2.15%
Semen motility % [1, 5]: 50.69 ± 1.05^b %
Sperm viability % [1, 5]: 52.45 ± 1.22^b %
Sperm motility compared with other addition groups ([1]; 1 g/L): higher than those in other addition groups
Sperm viability compared with other addition groups ([1]; 1 g/L): higher than those in other addition groups
Semen motility % ([1]; 1.0 g/L in base diluent, Day 0): 81.36 ± 2.05%
Sperm viability % ([1]; 1.0 g/L in base diluent, Day 0): 84.12 ± 2.15%
Semen motility % [1, 6]: 53.69 ± 0.84^a %
Sperm viability % [1, 6]: 56.49 ± 1.32^a %
Semen motility % ([1]; 1.5 g/L in base diluent, Day 0): 81.36 ± 2.05%
Sperm viability % ([1]; 1.5 g/L in base diluent, Day 0): 84.12 ± 2.15%
Semen motility % [1, 7]: 47.32 ± 2.41^c %
Sperm viability % [1, 7]: 50.52 ± 2.74^b %
Semen motility % ([1]; 2.0 g/L in base diluent, Day 0): 81.36 ± 2.05%
Sperm viability % ([1]; 2.0 g/L in base diluent, Day 0): 84.12 ± 2.15%
Semen motility % [1, 8]: 45.55 ± 1.52^d %
Sperm viability % [1, 8]: 45.36 ± 2.31^c %
Plasma membrane integrity of sperms [2, 9]: 58.93%
Plasma membrane integrity of sperms, T group vs NC group [2, 10]: significantly higher
Acrosome integrity of sperms [3, 9]: 60.12%
Acrosome integrity of sperms, T group vs NC group [3, 10]: significantly higher
GSH-Px, T group vs NC group ([4]; day 1 of preservation): not significantly different
MDA, T group vs NC group ([4]; day 1 of preservation): not significantly different
T-AOC, T group vs NC group ([4]; day 1 of preservation): not significantly different
CAT enzyme activity, T group vs NC group ([4]; day 1 of preservation, P<0.05): significantly increased
Level of ROS, T group vs NC group ([4]; day 1 of preservation, P<0.05): significantly decreased
SOD enzyme activity, T group vs NC group ([4]; day 1 of preservation, P<0.05): significantly increased
Level of CAT, T group vs NC group [4, 11]: significantly higher
Level of GSH-Px, T group vs NC group [4, 11]: significantly higher
Level of MDA, T group vs NC group [4, 11]: significantly lower
Level of ROS, T group vs NC group [4, 11]: significantly lower
Level of SOD, T group vs NC group [4, 11]: significantly higher
Level of T-AOC, T group vs NC group [4, 11]: significantly higher
